Here are results for three compounds from patent US20250319055A1, “COMPOSITIONS FOR TREATING GENITAL HERPES AND METHODS OF THEIR USE” (priority 2024, published 2025).

Each structure is given as a SMILES string. In brackets after ≈: the same amount, converted by molar mass. Where two headings read alike, the source gives them in different places.

Data set [1] relates to HSV-2 mediated calcium flux in HEK293-RyR1 cells. Kind of data set: Calcium flux assay with Fluo-4 Direct Calcium Assay Kit. It is filed as cell-based. Particulars: for RFU drop in calcium flux: FIG. 6A-6B legend; for maximum average ΔRFU: treated cells minus cells only, HSV-2 MOI 0.01. The method, then: The Fluo-4 Direct™ Calcium Assay Kit was be used to assess calcium response in RyR1-expressing cells treated with a calcium agonist (Carbachol) or infected with HSV-2 MS at an MOI of 0.01. For the virus-infected cells, procedures as described above were followed but with a 96-well black plate.
Cells were seeded in 100 μL of incubation medium in black 96-well plates coated with poly-D-lysine at 5.0E+04 cells per well and incubated at 37° C. with 5% CO2 overnight (16-20 hours). […]
A 2× Fluo-4 Direct™ calcium reagent loading solution with 5 mM probenecid was prepared by adding 10 mL of Fluo-4 Direct™ calcium assay buffer and 200 μL of the 250 mM stock solution of probenecid to one bottle of 2× Fluo-4 Direct™ calcium reagent (labeled Component A). The solution was vortexed and allowed to sit for five minutes for complete dissolution. […]
The fluorescence of each well was measured directly after the addition of carbachol with the Biotek Cytation 5 plate reader using the fluorescence reader settings for excitation at 494/10 nm and emission at 520/10 nm. The fluorescence measurements in relative fluorescence units (RFU) were recorded and exported to Excel.
ΔRFU is given in relative fluorescent units (RFU) as the maximum response (TA or virus treated cells) minus the minimum response (cells only).
On day 3, a 250 mM stock solution of probenecid was prepared by adding 1 mL of Fluo-4 Direct™ calcium assay buffer (labeled Component C) to each 77 mg vial of water-soluble probenecid. The vial was vortexed until dissolved.
Plated cells were removed from the incubator. TA/virus dilutions were removed and 100 μL of incubation medium was added to the plate. Then, 100 μL of 2× Fluo-4 Direct™ calcium reagent loading solution was added. Plates were incubated for 30 minutes at 37° C. with 5% CO2 followed by 30 minutes at room temperature. Carbachol dilutions (100 μL) were added to the plate that contains only cells as a positive control.
(In general: Calcium assays in cells follow changes in intracellular calcium, usually with a dye or a luminescent sensor.)

Data set [2] deals with HSV-2 MS in HEK293-RyR1 cells. Description: HSV-2 cytopathic effect (CPE) inhibition assay, crystal violet staining. The data set is classed as cell-based, Herpes Simplex Virus 2, strain MS. The following applies: for IC50: Human alphaherpesvirus 2, 72 h, read-out: IC50, CPE inhibition. As to the method:
HSV-2 infection was established in HEK293-RyR1 cells by testing three different multiplicities of infection (MOI) as part of the development of the CPE inhibition assay. An inhibitor of HSV-2 was incubated with cells and subsequently infected with HSV-2 at three different MOIs. Cells-only and virus-only controls were included. Cells were observed daily to monitor CPE progression, and the incubation was allowed to continue until sufficient CPE of 60-80% is observed in the virus-only controls. CPE was quantified via crystal violet staining and results given as % inhibition and IC50 values, 50% of the maximum inhibitory dosage of the test article.
The virus was Herpes Simplex Virus 2, strain MS, lot 7172020, at MOI of 0.01 (ATCC, Catalog #VR-540). HEK293-RyR1 cell line was obtained from Kerafast (Cat. #EUR301). Growth medium was DMEM (High Glucose) supplemented with 10% FBS, 2 mM L-Glutamine, 1% Pen/Strep, 100 µg/ml Hygromycin. Incubation medium was DMEM (High Glucose) supplemented with 2% FBS, 2 mM L-Glutamine, 1% Pen/Strep. Infection medium was DMEM (High Glucose) supplemented with 2 mM L-Glutamine, 1% Pen/Strep. Acyclovir (as a control HSV-2 MS inhibitor) was stored at cell culture grade water (Ultrapure DNAse/RNase free distilled water, Thermo Scientific Cat. 10977015) and tested at concentrations of 10, 3.2, 1.0, 0.32, 0.10, 0.032, 0.010, 0.0032 50, 25, 12.5, 6.25, 3.125, 1.5625, 0.78125, 0.3906 100, 50, 25, 12.5, 6.25, 3.125, 1.5625, 0.78125 mg/ml. Carbachol (a Calcium agonist), obtained from Fisher Scientific (ASL0667403) was stored in cell culture-grade water and tested at concentrations of 333, 166.65, 83.325, 41.6625 mg/ml. […]
HSV-2 MS was prepared at the specific MOI in infection medium and added to the acyclovir/TA-containing wells in a dilution block. […] Plates were monitored daily to observe CPE levels. […]
After one hour, plates were washed with tap water and blotted on absorbent paper. Plates were allowed to air dry, and the absorbance of each well was read at 570 nm with a plate reader.
Absorbance values were exported into Excel. […]

For data set [3] the following is noted: base form versus salt form (Miller et al. 1993); cited from earlier work.
The next data set has as its system HSV-2 genital herpes. Kind of data set: Treatment of HSV-2 genital herpes in human subjects. The data set is classed as in vivo. An excerpt:
An otherwise healthy person presented pain with urination and a solitary sore on the vulva. It was initially unclear by visible inspection if the solitary sore was herpes or a shave injury. […] The patient reported Pain 7/10, and worse with urination. […] The patient was given the formulation to use at home (two applications per day). The patient was also offered a prescription for 1 gram of Valtrex to be taken twice a day.
As a comparison, before the date of the patient's treatment, typical otherwise healthy female patients of this same age presenting similar herpes sores are given a prescription for Valtrex and take up to two weeks to resolve their herpes ulcers.
A second human subject with a long history of HSV-2 who has previously taken oral Valtrex™ (Valacyclovir) to resolve past HSV-2 ulcerations was administered a representative pharmaceutical composition of this disclosure as described in Example 1. The subject has previously resolved HSV-2 ulcerations in 5-7 days after outbreak when administered Valtrex. The subject was administered the representative tetracaine composition twice a day for two days at which point the subject's lesions were completely re-epithelialized and the pain was reduced to 0/10. Before treatment, the subject reported pain at 5/10 at max. […]

Where [4] appears, read: at the highest concentration tested.

`Nc1nc2c(ncn2COCCO)c(=O)[nH]1` [Acyclovir]: the “RFU drop in calcium flux” value in data set [1] is reported as “about 2000 RFU”. The “maximum average ΔRFU” value in data set [1] (setting [4]) is −1801.6 RFU. For the same compound, the IC50 (usually the midpoint of a concentration-inhibition curve) in data set [2] (HSV-2 MOI 0.01, 5.0×10^4 HEK293-RyR1 cells per well, day 3) stood at 0.0457 mg/mL (≈ 0.203 mM).
As to `CCCCNc1ccc(C(=O)OCCN(C)C)cc1` [Tetracaine, 2-(dimethylamino)ethyl 4-(butylamino)benzoate], in data set [3], the “flux through the dermis” value is “fluxes more readily than the salt form”. Besides, the “RFU drop in calcium flux” value in data set [1] is 4000 RFU. Besides, in data set [1] (setting [4]), the “fold higher average ΔRFU than Acyclovir” value was determined as 3.6 fold and the “maximum average ΔRFU” value is reported as −6527.9 RFU. In addition, in data set [2], the IC50 came out at 94.6 mg/mL (≈ 358 mM). Also, in data set [2] (compared to cells only, virus-only and Acyclovir-treated cells, day 3 (FIG. 5D)), the “cell morphology of treated cells” value is on record as “Abnormal cell morphology”.
As to `CC(C)[C@H](N)C(=O)OCCOCn1cnc2c(=O)[nH]c(N)nc21` [Valtrex], the “time to resolve HSV-2 ulcerations after outbreak” value in the data set with HSV-2 genital herpes (person, past outbreaks, oral) was 5 to 7 days. Further, the “time to resolve herpes ulcers” value in the data set on HSV-2 genital herpes (typical otherwise healthy female patients of same age with similar herpes sores, prescription) was “up to two”.
